In publication PMC10213797 (Acta Pharmaceutica Sinica. B, 2023):

Assays:
hBChE = hBChE (Homo sapiens, UniProt P06276); experiment: hBChE inhibition, Ellman's method; format: biochemical; conditions: IC50 ± SEM hBChE, Table 1; n = 3, in triplicates
hAChE = hAChE (Homo sapiens, UniProt P22303); experiment: hAChE inhibition, Ellman's method; format: biochemical
[1] = DPPH radical-scavenging assay; conditions: means ± SEM (n = 2, in triplicates); for EC50: read-out: Radical-scavenging DPPH assay EC50
BBB-PAMPA permeability = conditions: pH 7.4, 4 h, 25 °C, brain sink buffer; for Papp at 4 h, 100 μmol/L: PAMPA, pH 7.4, BBB–PAMPA permeability Papp (mean ± SD)
Aβ1–42 = Aβ1–42 (Homo sapiens, UniProt P05067); experiment: Aβ1–42 aggregation inhibition, ThT fluorescence assay; format: biochemical; conditions: 10 μmol/L ligand and 1.5 μmol/L Aβ1–42; mean ± SD (n ≥ 3)
Sequence of Aβ1–42 (P05067 672-713): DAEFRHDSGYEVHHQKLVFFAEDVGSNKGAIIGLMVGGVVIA

Sequence of hBChE (P06276 29-602): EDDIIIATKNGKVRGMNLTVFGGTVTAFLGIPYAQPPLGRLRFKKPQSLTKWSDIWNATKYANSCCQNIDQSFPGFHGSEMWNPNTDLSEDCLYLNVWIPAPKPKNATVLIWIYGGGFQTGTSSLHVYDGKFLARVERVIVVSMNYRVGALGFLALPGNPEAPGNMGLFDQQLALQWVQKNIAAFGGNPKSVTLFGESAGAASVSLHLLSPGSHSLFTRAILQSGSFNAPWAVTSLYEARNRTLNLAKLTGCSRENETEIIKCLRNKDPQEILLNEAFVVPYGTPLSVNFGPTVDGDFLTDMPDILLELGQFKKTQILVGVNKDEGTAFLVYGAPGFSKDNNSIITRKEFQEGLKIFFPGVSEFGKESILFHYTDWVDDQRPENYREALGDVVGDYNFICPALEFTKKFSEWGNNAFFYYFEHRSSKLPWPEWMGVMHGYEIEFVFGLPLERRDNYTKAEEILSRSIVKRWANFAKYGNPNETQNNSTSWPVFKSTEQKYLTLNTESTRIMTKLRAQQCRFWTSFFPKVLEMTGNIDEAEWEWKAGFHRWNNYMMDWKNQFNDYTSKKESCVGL
Sequence of hAChE (P22303 32-614): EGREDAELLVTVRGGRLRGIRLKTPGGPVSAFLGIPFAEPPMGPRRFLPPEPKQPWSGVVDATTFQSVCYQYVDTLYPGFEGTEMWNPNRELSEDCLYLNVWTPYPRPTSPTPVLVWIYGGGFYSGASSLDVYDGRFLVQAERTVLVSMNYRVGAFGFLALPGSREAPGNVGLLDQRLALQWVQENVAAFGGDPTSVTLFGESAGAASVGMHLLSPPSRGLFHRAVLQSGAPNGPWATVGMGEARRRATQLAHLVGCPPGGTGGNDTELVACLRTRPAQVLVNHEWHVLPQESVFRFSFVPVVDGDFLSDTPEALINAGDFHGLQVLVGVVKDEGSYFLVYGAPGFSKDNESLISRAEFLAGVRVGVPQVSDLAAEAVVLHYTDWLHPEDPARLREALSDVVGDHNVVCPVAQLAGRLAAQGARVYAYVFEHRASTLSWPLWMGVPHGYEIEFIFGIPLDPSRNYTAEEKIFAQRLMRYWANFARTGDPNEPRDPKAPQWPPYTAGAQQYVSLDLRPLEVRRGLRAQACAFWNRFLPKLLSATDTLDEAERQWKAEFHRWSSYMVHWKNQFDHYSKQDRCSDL

COc1cccc2cc(/C=[N+](\[O-])Cc3ccccc3)c(OCCCN3CCCCC3)nc12 [QN 2, (Z)-N-Benzyl-1-(8-methoxy-2-(3-(piperidin-1-yl)propoxy)quinolin-3-yl)methanimine oxide]
IC50 (hBChE): 0.415 ± 0.0167 µM
IC50 (hAChE): 39.6 ± 6.1 µM

CC(C)(C)/[N+]([O-])=C/c1cc2cccc(O)c2nc1Cl [QN 11, (Z)-N-tert-Butyl-1-(2-chloro-8-hydroxyquinolin-3-yl)methanimine oxide]
IC50 (hBChE): 12.4 ± 0.7 µM

COc1cccc2cc(/C=[N+](\[O-])C(C)(C)C)c(OCCCN3CCCCC3)nc12 [QN 1, (Z)-N-tert-Butyl-1-(8-methoxy-2-(3-(piperidin-1-yl)propoxy)quinolin-3-yl)methanimine oxide]
IC50 (hBChE): 0.707 ± 0.0454 µM

Oc1ccc(/C=C/c2cc(O)cc(O)c2)cc1 [resveratrol, reference compound]
EC50 [1]: 50.1 µM

C#CCN1CCN(CCCOc2cccc3cc(/C=[N+](\[O-])C(C)(C)C)c(Cl)nc23)CC1 [QN 7, (Z)-N-tert-Butyl-1-(2-chloro-8-(3-(4-(prop-2-yn-1-yl)piperazin-1-yl)propoxy)quinolin-3-yl)methanimine oxide]
IC50 (hBChE): 13.3 ± 0.9 µM

CC(C)(C)/[N+]([O-])=C/c1ccc2cccc(O)c2n1 [QN 18, (Z)-N-tert-Butyl-1-(8-hydroxyquinolin-2-yl)methanimine oxide]
EC50 [1]: 119 ± 1.2 µM
Papp at 4 h, 100 μmol/L (BBB-PAMPA permeability): 43.7 ± 4.1 ×10⁻⁶ cm/s
BBB–PAMPA permeability −LogPe (BBB-PAMPA permeability): 4.4 log [cm/s]
Inhibition of Aβ1–42 aggregation (Aβ1–42): n.i. ^e (n.i., no inhibition <20%)

C#CCN1CCN(CCCOc2nc3c(OC)cccc3cc2/C=[N+](\[O-])Cc2ccccc2)CC1 [QN 4, (Z)-N-Benzyl-1-(8-methoxy-2-(3-(4-(prop-2-yn-1-yl)piperazin-1-yl)propoxy)quinolin-3-yl)methanimine oxide]
IC50 (hBChE): 3.06 ± 0.29 µM

[O-]/[N+](=C\c1cc2cccc(O)c2nc1Cl)Cc1ccccc1 [QN 12, (Z)-N-Benzyl-1-(2-chloro-8-hydroxyquinolin-3-yl)methanimine oxide]
IC50 (hBChE): 10.7 ± 0.7 µM

COc1cccc2cc(/C=[N+](\[O-])C(C)(C)C)c(Cl)nc12 [QN 9, (Z)-N-tert-Butyl-1-(2-chloro-8-methoxyquinolin-3-yl)methanimine oxide]
IC50 (hBChE): 15.2 ± 1.1 µM

C#CCN1CCN(CCCOc2nc3c(OC)cccc3cc2/C=[N+](\[O-])C(C)(C)C)CC1 [QN 3, (Z)-N-tert-Butyl-1-(8-methoxy-2-(3-(4-(prop-2-yn-1-yl)piperazin-1-yl)propoxy)quinolin-3-yl)methanimine oxide]
IC50 (hBChE): 2.06 ± 0.04 µM

C#CCN1CCN(CCCOc2cccc3ccc(/C=[N+](\[O-])C(C)(C)C)nc23)CC1 [QN 15, (Z)-N-tert-Butyl-1-(8-(3-(4-(prop-2-yn-1-yl)piperazin-1-yl)propoxy)quinolin-2-yl)methanimine oxide]
Radical-scavenging DPPH assay EC50 [1]: n.a. ^d (n.a., not active–% DPPH reduced at 100 μmol/L concentration lower than 10%)
Papp at 4 h, 100 μmol/L (BBB-PAMPA permeability): 72.2 ± 2.7 ×10⁻⁶ cm/s
BBB–PAMPA permeability −LogPe (BBB-PAMPA permeability): 4.1 log [cm/s]
Inhibition of Aβ1–42 aggregation (Aβ1–42): n.i. ^e (n.i., no inhibition <20%)

C#CCN1CCN(CCCOc2cccc3ccc(C=O)nc23)CC1 [QN 32, 8-(3-(4-(Prop-2-yn-1-yl)piperazin-1-yl)propoxy)quinoline-2-carbaldehyde]
Radical-scavenging DPPH assay EC50 [1]: n.a. ^d (n.a., not active–% DPPH reduced at 100 μmol/L concentration lower than 10%)
Papp at 4 h, 100 μmol/L (BBB-PAMPA permeability): 50.3 ± 2.8 ×10⁻⁶ cm/s
BBB–PAMPA permeability −LogPe (BBB-PAMPA permeability): 4.3 log [cm/s]
Inhibition of Aβ1–42 aggregation (Aβ1–42): 40.7 ± 2.4%∗
